Source: paper PMC6364417, “Kinase inhibitor library screening identifies synergistic drug combinations effective in sensitive and resistant melanoma cells” (Journal of Experimental & Clinical Cancer Research : CR, 2019)

Key:
Experiment in all cases: Kinase inhibitor library screening, PrestoBlue cell viability, 1 or 10 μM, 72 h
[1] = test system: 501Mel-XP cells (Vemurafenib-resistant); conditions: 72 h; for viability at 1 µM / viability at 10 µM: Homo sapiens; for viability at 1 µM: read-out: cell viability, 501Mel XP, 1μΜ; for viability at 10 µM: read-out: cell viability, 501Mel XP, 10μΜ
[2] = test system: IGR37-GP cells (Dabrafenib-resistant); conditions: for viability at 1 µM / viability at 10 µM: Homo sapiens, IGR-37, 72 h; for viability at 1 µM: read-out: cell viability, IGR37 GP, 1μΜ; for viability at 10 µM: read-out: cell viability, IGR37 GP, 10μΜ
[3] = test system: 501Mel-GP cells (Dabrafenib-resistant); conditions: 72 h; for viability at 1 µM / viability at 10 µM: Homo sapiens; for viability at 1 µM: read-out: cell viability, 501Mel GP, 1μΜ; for viability at 10 µM: read-out: cell viability, 501Mel GP, 10μΜ
[4] = test system: A375-XP cells (Vemurafenib-resistant); conditions: for viability at 1 µM / viability at 10 µM: Homo sapiens, A-375, 72 h; for viability at 1 µM: read-out: cell viability, A375 XP, 1μΜ; for viability at 10 µM: read-out: cell viability, A375 XP, 10μΜ; for cell viability, A375 XP, 1μΜ / cell viability, A375 XP, 10μΜ: in %
IGR37 cells (parental) = conditions: for viability at 1 µM / viability at 10 µM: Homo sapiens, IGR-37, 72 h; for viability at 1 µM: read-out: cell viability, IGR37 Parental, 1μΜ; for viability at 10 µM: read-out: cell viability, IGR37 Parental, 10μΜ
[5] = test system: A375-GP cells (Dabrafenib-resistant); conditions: for viability at 1 µM / viability at 10 µM: Homo sapiens, A-375, 72 h; for viability at 1 µM: read-out: cell viability, A375 GP, 1μΜ; for viability at 10 µM: read-out: cell viability, A375 GP, 10μΜ; for cell viability, A375 GP, 1μΜ / cell viability, A375 GP, 10μΜ: in %
[6] = test system: IGR37-XP cells (Vemurafenib-resistant); conditions: for viability at 1 µM / viability at 10 µM: Homo sapiens, IGR-37, 72 h; for viability at 1 µM: read-out: cell viability, IGR37 XP, 1μΜ; for viability at 10 µM: read-out: cell viability, IGR37 XP, 10μΜ; for cell viability, IGR37 XP, 1μΜ: in %
A375 cells (parental) = conditions: for viability at 1 µM / viability at 10 µM: Homo sapiens, A-375, 72 h; for viability at 1 µM: read-out: cell viability, A375 Parental, 1μΜ; for viability at 10 µM: read-out: cell viability, A375 Parental, 10μΜ; for cell viability, A375 Parental, 1μΜ / cell viability, A375 Parental, 10μΜ: in %
501Mel cells (parental) = conditions: 72 h; for viability at 1 µM / viability at 10 µM: Homo sapiens; for viability at 1 µM: read-out: cell viability, 501Mel Parental, 1μΜ; for viability at 10 µM: read-out: cell viability, 501Mel Parental, 10μΜ
Outline: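 Readout: PrestoBlue signal on a monochromator plate reader, given as percent viability relative to untreated controls. Parental and drug-resistant (Vemurafenib XP, Dabrafenib GP) sublines were tested; at least duplicates per line.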

[7] = IGR37 Parental, 1μΜ, 72 h, in %
[8] = IGR37 Parental, 10μΜ, 72 h, in %

SMILES: CC(C)(O)CC(=O)NCCn1ccc2ncnc(Nc3ccc(Oc4cccc(C(F)(F)F)c4)c(Cl)c3)c21 [TAK-285]
- viability at 1 µM [1]: 94.8%
- viability at 10 µM [1]: 83.2%
- viability at 1 µM [2]: 90.8%
- viability at 10 µM [2]: 86%
- viability at 1 µM [3]: 104%
- viability at 10 µM [3]: 87.8%
- viability at 1 µM [4]: 108%
- viability at 10 µM [4]: 87.7%
- viability at 1 µM (IGR37 cells (parental)): 108%
- viability at 10 µM (IGR37 cells (parental)): 99.7%
- viability at 1 µM [5]: 103%
- viability at 10 µM [5]: 83.1%
- viability at 1 µM [6]: 87.2%
- viability at 10 µM [6]: 48.4%
- viability at 1 µM (A375 cells (parental)): 102%
- viability at 10 µM (A375 cells (parental)): 90.5%
- viability at 1 µM (501Mel cells (parental)): 101%
- viability at 10 µM (501Mel cells (parental)): 99%

SMILES: Cn1c(=O)c(F)c(Nc2ccc(I)cc2F)c2c(=O)n(C[C@@H](O)CO)cnc21 [TAK-733]
- viability at 1 µM [1]: 80.5%
- viability at 10 µM [1]: 58.7%
- viability at 1 µM [2]: 65.6%
- viability at 10 µM [2]: 58.6%
- viability at 1 µM [3]: 90.9%
- viability at 10 µM [3]: 72.7%
- viability at 1 µM [4]: 10.7%
- viability at 10 µM [4]: 2.7%
- viability at 1 µM (IGR37 cells (parental)): 36.5%
- viability at 10 µM (IGR37 cells (parental)): 44%
- viability at 1 µM [5]: 17.6%
- viability at 10 µM [5]: 16.5%
- viability at 1 µM [6]: 52.9%
- viability at 10 µM [6]: 22%
- viability at 1 µM (A375 cells (parental)): 18.6%
- viability at 10 µM (A375 cells (parental)): 18.6%
- viability at 1 µM (501Mel cells (parental)): 54%
- viability at 10 µM (501Mel cells (parental)): 57.9%

SMILES: Nc1nc(N)c2nc(-c3cccc(O)c3)c(-c3cccc(O)c3)nc2n1 [TG100-115]
- Cell viability in kinase inhibitor library screening, 501Mel XP, 1μΜ ([1]; 501Mel XP, 1μΜ, in %): 97.0
- Cell viability in kinase inhibitor library screening, 501Mel XP, 10μΜ ([1]; 501Mel XP, 10μΜ, in %): 81.6
- Cell viability in kinase inhibitor library screening, IGR37 GP, 10μΜ ([2]; IGR37 GP, 10μΜ, 72 h): 89.4%
- Cell viability in kinase inhibitor library screening, IGR37 GP, 1μΜ ([2]; IGR37 GP, 1μΜ, 72 h, in %): 96.0
- Cell viability in kinase inhibitor library screening, 501Mel GP, 1μΜ ([3]; 501Mel GP, 1μΜ, in %): 107.0
- Cell viability in kinase inhibitor library screening, 501Mel GP, 10μΜ ([3]; 501Mel GP, 10μΜ, in %): 81.4
- Cell viability in kinase inhibitor library screening, A375 XP, 1μΜ ([4]; A375 XP, 1μΜ, 72 h): 103.9
- Cell viability in kinase inhibitor library screening, IGR37 Parental, 1μΜ (IGR37 cells (parental); [7]): 97.1
- Cell viability in kinase inhibitor library screening, IGR37 Parental, 10μΜ (IGR37 cells (parental); [8]): 98.5
- Cell viability in kinase inhibitor library screening, A375 GP, 1μΜ ([5]; A375 GP, 1μΜ, 72 h): 100.0
- Cell viability in kinase inhibitor library screening, A375 GP, 10μΜ ([5]; A375 GP, 10μΜ, 72 h): 91.7
- Cell viability in kinase inhibitor library screening, IGR37 XP, 10μΜ ([6]; IGR37 XP, 10μΜ, 72 h): 70.9%
- Cell viability in kinase inhibitor library screening, A375 Parental, 10μΜ (A375 cells (parental); A375 Parental, 10μΜ, 72 h): 88.3
- Cell viability in kinase inhibitor library screening, A375 Parental, 1μΜ (A375 cells (parental); A375 Parental, 1μΜ, 72 h): 100.3
- Cell viability in kinase inhibitor library screening, 501Mel Parental, 1μΜ (501Mel cells (parental); 501Mel Parental, 1μΜ, in %): 99.2
- Cell viability in kinase inhibitor library screening, 501Mel Parental, 10μΜ (501Mel cells (parental); 501Mel Parental, 10μΜ, in %): 89.6

SMILES: Cc1cnc(Nc2ccc(N3CCN(C)CC3)cc2)nc1Nc1cccc(S(=O)(=O)NC(C)(C)C)c1 [TG101209]
- cell viability, 501Mel XP, 1μΜ ([1]; 501Mel XP, 1μΜ, in %): 85.2
- cell viability, 501Mel XP, 10μΜ ([1]; 501Mel XP, 10μΜ, in %): -0.127
- cell viability, IGR37 GP, 10μΜ ([2]; IGR37 GP, 10μΜ, 72 h): 3.2%
- cell viability, IGR37 GP, 1μΜ ([2]; IGR37 GP, 1μΜ, 72 h, in %): 98.5
- cell viability, 501Mel GP, 1μΜ ([3]; 501Mel GP, 1μΜ, in %): 109.4
- cell viability, 501Mel GP, 10μΜ ([3]; 501Mel GP, 10μΜ, in %): 1.7
- cell viability, A375 XP, 1μΜ ([4]; A375 XP, 1μΜ, 72 h): 93.3
- cell viability, A375 XP, 10μΜ ([4]; A375 XP, 72 h): 13.1
- cell viability, IGR37 Parental, 1μΜ (IGR37 cells (parental); [7]): 97.5
- cell viability, IGR37 Parental, 10μΜ (IGR37 cells (parental); [8]): 6.5
- cell viability, A375 GP, 1μΜ ([5]; A375 GP, 1μΜ, 72 h): 79.9
- cell viability, A375 GP, 10μΜ ([5]; A375 GP, 10μΜ, 72 h): 14.4
- cell viability, IGR37 XP, 10μΜ ([6]; IGR37 XP, 10μΜ, 72 h): 1.6%
- cell viability, IGR37 XP, 1μΜ ([6]; IGR37 XP, 72 h): 82.7
- cell viability, A375 Parental, 1μΜ (A375 cells (parental); A375 Parental, 1μΜ, 72 h): 87.8
- cell viability, A375 Parental, 10μΜ (A375 cells (parental); A375 Parental, 10μΜ, 72 h): 11.9
- cell viability, 501Mel Parental, 10μΜ (501Mel cells (parental); 501Mel Parental, 10μΜ, in %): 0.6

SMILES: Cc1cnc(Nc2ccc(OCCN3CCCC3)cc2)nc1Nc1cccc(S(=O)(=O)NC(C)(C)C)c1 [TG101348 (SAR302503)]
- cell viability, 501Mel XP, 1μΜ ([1]; 501Mel XP, 1μΜ, in %): 89.8
- cell viability, 501Mel XP, 10μΜ ([1]; 501Mel XP, 10μΜ, in %): -0.1
- cell viability, IGR37 GP, 10μΜ ([2]; IGR37 GP, 10μΜ, 72 h): 6.2%
- cell viability, IGR37 GP, 1μΜ ([2]; IGR37 GP, 1μΜ, 72 h, in %): 95.7
- cell viability, 501Mel GP, 10μΜ ([3]; 501Mel GP, 10μΜ, in %): 1.0
- cell viability, A375 XP, 1μΜ ([4]; A375 XP, 1μΜ, 72 h): 99.7
- cell viability, A375 XP, 10μΜ ([4]; A375 XP, 72 h): 17.0
- cell viability, IGR37 Parental, 1μΜ (IGR37 cells (parental); [7]): 98.0
- cell viability, IGR37 Parental, 10μΜ (IGR37 cells (parental); [8]): 21.1
- cell viability, A375 GP, 1μΜ ([5]; A375 GP, 1μΜ, 72 h): 89.1
- cell viability, A375 GP, 10μΜ ([5]; A375 GP, 10μΜ, 72 h): 15.0
- cell viability, IGR37 XP, 10μΜ ([6]; IGR37 XP, 10μΜ, 72 h): 2%
- cell viability, IGR37 XP, 1μΜ ([6]; IGR37 XP, 72 h): 94.2
- cell viability, A375 Parental, 1μΜ (A375 cells (parental); A375 Parental, 1μΜ, 72 h): 100.2
- cell viability, A375 Parental, 10μΜ (A375 cells (parental); A375 Parental, 10μΜ, 72 h): 12.9
- cell viability, 501Mel Parental, 1μΜ (501Mel cells (parental); 501Mel Parental, 1μΜ, in %): 98.7
- cell viability, 501Mel Parental, 10μΜ (501Mel cells (parental); 501Mel Parental, 10μΜ, in %): 1.4
